This note sets out measurements from patent US20110152246A1, “NOVEL INHIBITORS OF HEPATITIS C VIRUS REPLICATION” (InterMune, Inc., priority 2009, published 2011).

The EC50 is the concentration giving half of the maximal effect.

Where two headings read alike, the source gives them in different places. A value given as a limit tells only on which side of the number the result lay.

In this experiment the test system is Huh7 cells containing HCV replicons with an integrated luciferase reporter gene. Briefly: HCV Replicon Assay (luciferase reporter). It is filed as cell-based. The following applies: Hepatitis C virus. Here is the method:
Huh7 cells containing HCV replicons with an integrated luciferase reporter gene are maintained at 37° C. in 5% CO2 in Dulbecco's modified Eagle's medium (DMEM; Mediatech, Herndon, Va.) containing 10% heat-inactivated fetal bovine serum (FBS; Mediatech, Herndon, Va.), 2 mM L-glutamine (Cambrex Bioscience, Walkersville, Md.), 1% non essential amino acids (Lonza, Walkersville, Md.), 50 IU/mL penicillin (Mediatech, Herndon, Va.), […] streptomycin (Mediatech, Herndon, Va.) and 0.5 mg/mL G418 (Promega, Madison, Wis.). Cells are sub-divided 1:3 or 4 every 2-3 days.
24 h prior to the assay, Huh7 cells containing sub-genomic HCV replicons are collected, counted, and plated in Nunclon 96-well tissue culture plates (ThermoFisher, Rochester, N.Y.) at 5000 cells/well in […] standard maintenance medium (above) and incubated in the conditions above. To initiate the assay, culture medium is removed, and replaced with […] maintenance media lacking G418. Test compounds are serially diluted three-fold in dimethyl sulfoxide (DMSO) in two duplicate rows for each EC50 determination. These compound solutions are diluted ten-fold in DMEM lacking serum and G418. […] of these compound solutions in media are added to duplicate tissue culture plates. The final volume is 100 μL with a DMSO concentration of 1%. Compound concentrations are adjusted to appropriately define a dose response curve. Typical dilution series range from […] to 1.69 nM final concentrations to 1 nM to 16.9 fM final. Plates are incubated at 37° C. for approximately 48 hr.
Following incubation, media is removed from one of the two duplicate plates and replicon-reporter luciferase activity is measured using a Bright-Glo luciferase assay kit (Promega, Madison, Wis.) according to manufacturer's instructions. Semi-log plots of luciferase activity versus the logarithm of compound concentration are fit to a 4-parameter logistic function using XLfit software (IDBS Inc., Guildford, UK) to determine EC50.

The mark [1] stands for this setting: Huh-7, Huh7 HCV replicon cells, luciferase activity, approximately 48 hr incubation, read-out: EC50.

For the compound `COC(=O)N[C@H](C(=O)N1CCC[C@H]1C(=O)Nc1ccc2cc(NC(=O)[C@@H]3CCCN3C(=O)[C@@H](NC(=O)OC)C(C)C)ccc2c1)C(C)C` [Compound 204], the EC50 under setting [1] lay in the range of 10 to 100 nM. The same measure, in the same setting: the result for `COC(=O)N[C@H](C(=O)N1CCC[C@H]1c1ncc(-c2ccc(-c3ccc(-c4cnc([C@@H]5CCCN5C(=O)[C@@H](NC(=O)OC)C(C)C)[nH]4)c4ccccc34)cc2)[nH]1)C(C)C` [Compound 301] reads under 10 nM; that for `COC(=O)N[C@H](C(=O)N1CCC[C@H]1c1nc(-c2ccc(-c3ccc(-c4c[nH]c([C@@H]5CCCN5C(=O)[C@@H](NC(=O)OC)C(C)C)n4)c4cccnc34)cc2)c[nH]1)C(C)C` [Compound 314], under 10 nM. For the compound `COC(=O)NCC(=O)N1CCC[C@H]1c1ncc(-c2ccc(-c3ccc(-c4cnc([C@@H]5CCCN5C(=O)CNC(=O)OC)[nH]4)c4ccccc34)cc2)[nH]1` [Compound 325], the EC50 under setting [1] is under 10 nM. On the same count and under the same terms, then `COC(=O)N[C@@H](C(=O)N1CCC[C@H]1c1ncc(-c2ccc(-c3ccc(-c4cnc([C@@H]5CCCN5C(=O)[C@H](NC(=O)OC)C(C)C)[nH]4)c4ccccc34)cc2)[nH]1)C(C)C` [Compound 324], with under 10 nM. For `O=C(Nc1ccc(-c2ccc3nc(NC(=O)[C@@H]4CCCN4C(=O)Cc4ccccc4)ccc3c2)cn1)[C@@H]1CCCN1C(=O)Cc1ccccc1` [Compound 216], the 50% effective concentration (EC50) (Huh-7, 48 h, read-out: EC50 nM) was under 10 nM. On to `COC(=O)N[C@H](C(=O)N1CCC[C@H]1c1nc(-c2ccc(-c3ccc(-c4c[nH]c([C@@H]5CCCN5C(=O)[C@@H](NC(=O)OC)C(C)C)n4)c4ncccc34)cc2)c[nH]1)C(C)C` [Compound 315], for which the concentration giving a half-maximal response (EC50) under setting [1] was under 10 nM. The same measure, in the same setting: the result for `COC(=O)N[C@H](C(=O)N1CCC[C@H]1C(=O)OCC(=O)c1ccc(-c2ccc(C(=O)COC(=O)[C@@H]3CCCN3C(=O)[C@@H](NC(=O)OC)C(C)C)c3c2CCC3)cc1)C(C)C` [Compound 305] reads over 100 nM; that for `COC(=O)N[C@H](C(=O)N1CCC[C@H]1c1nc(-c2ccc(-c3ccc(-c4c[nH]c([C@@H]5CCCN5C(=O)[C@@H](NC(=O)OC)C(C)C)n4)c4sccc34)cc2)c[nH]1)C(C)C` [Compound 311], under 10 nM; that for `COC(=O)N[C@H](C(=O)N1CCC[C@H]1c1nc(-c2ccc(-c3ccc(-c4c[nH]c([C@@H]5CCCN5C(=O)[C@@H](NC(=O)OC)C(C)C)n4)c4oc(C)nc34)cc2)c[nH]1)C(C)C` [Compound 323], under 10 nM. Regarding `COC(=O)N[C@H](C(=O)N1CCC[C@H]1C(=O)Nc1ccc2cc(-c3ccc(NC(=O)[C@@H]4CCCN4C(=O)[C@@H](NC(=O)OC)C(C)C)nc3)ccc2c1)C(C)C` [Compound 207], the 50% effective concentration (EC50) under setting [1] is under 10 nM. Same read-out and setting: then `COC(=O)N[C@H](C(=O)N1CCC[C@@]1(C)c1nc(-c2ccc(-c3ccc(-c4c[nH]c([C@]5(C)CCCN5C(=O)[C@@H](NC(=O)OC)C(C)C)n4)c4c3OCO4)cc2)c[nH]1)C(C)C` [Compound 328], with under 10 nM; and `COC(=O)N[C@H](C(=O)N1CCC[C@H]1c1nc(-c2ccc(-c3ccc(-c4c[nH]c([C@@H]5CCCN5C(=O)[C@@H](NC(=O)OC)C(C)C)n4)c4c3ccn4C)cc2)c[nH]1)C(C)C` [Compound 327], with under 10 nM. On to `O=C(Cc1ccccc1)N1CCC[C@H]1c1ncc(-c2ccc(-c3ccc(-c4cnc([C@@H]5CCCN5C(=O)Cc5ccccc5)[nH]4)c4ccccc34)cc2)[nH]1` [Compound 302], for which the EC50 (Huh-7, 48 h, read-out: EC50 nM) is under 10 nM. `COC(=O)N[C@H](C(=O)N1CCC[C@H]1C(=O)Nc1ccc2cc(NC(=O)[C@@H]3CCCN3C(=O)Cc3ccccc3)ccc2c1)C(C)C` [Compound 205]: the EC50 under setting [1] is over 100 nM.
